Experimental data taken from article PMC4476799, “Englerin A Agonizes the TRPC4/C5 Cation Channels to Inhibit Tumor Cell Line Proliferation” (PLoS ONE, 2015).
Read-outs that look alike come from different tables or passages of the source.

Test system: cancer cell lines from the cancer cell line encyclopedia (CCLE)
Experiment: Cell line profiling (CLiP) proliferation experiment
Type: cell-based
Conditions: for IC50: read-out: Crossing Point; for EC50: read-out: Inflection Point
Description: Compound profiling experiment and data analysis was performed as previously described. Data was imported and plotted using the Tibco Spotfire DXP application. Lines were categorized as sensitive, intermediate and refractory as follows: Amax<-40 & Inflection Point <2 ~ Sensitive, Amax>-20 & Inflection Point >10 ~ Refractory, all else were called Intermediate. Cancer Cell line HG-U133 Plus 2 data was processed and normalized as described. […] Five sets of refractory cell lines were generated from the pool of refractory cell lines trying to match the lineage composition of the set of sensitive cell lines. The limma package was used as previously described to perform the statistical comparison.

[1] = HT115, cell line HT115, large_intestine
[2] = Homo sapiens, 8-MG-BA, cell line 8-MG-BA, central_nervous_system, astrocytoma_Grade_IV
[3] = Homo sapiens, 769-P, cell line 769-P, kidney, clear_cell_renal_cell_carcinoma
[4] = Homo sapiens, A101D, A101D cells
[5] = Homo sapiens, A101D, cell line A101D, skin, NS
[6] = Homo sapiens, A204, cell line A-204, soft_tissue, NS
[7] = Homo sapiens, A2780, cell line A2780, ovary, adenocarcinoma
[8] = Homo sapiens, ABC-1, ABC-1 cells
[9] = Homo sapiens, ABC-1, cell line ABC-1, lung, non_small_cell_carcinoma
[10] = Homo sapiens, AMO1, cell line AMO-1, haematopoietic_and_lymphoid_tissue, plasma_cell_myeloma
[11] = Homo sapiens, BFTC-909, cell line BFTC-909, kidney, NS
[12] = Homo sapiens, BL-41, cell line BL-41, haematopoietic_and_lymphoid_tissue, Burkitt_lymphoma
[13] = Homo sapiens, BV-173, cell line BV-173, haematopoietic_and_lymphoid_tissue, blast_phase_chronic_myeloid_leukaemia
[14] = Homo sapiens, CAKI-1, cell line Caki-1, kidney, clear_cell_renal_cell_carcinoma
[15] = Homo sapiens, CAL-54, CAL-54, kidney, renal_cell_carcinoma
[16] = Homo sapiens, CAL-54, CAL-54 cells
[17] = Homo sapiens, CAL-85-1, CAL-85-1, breast, NS
[18] = Homo sapiens, CAL-85-1, CAL-85-1 cells
[19] = Homo sapiens, CAL-120, cell line CAL-120, breast, NS
[20] = Homo sapiens, CAPAN-1, Capan-1, pancreas, ductal_carcinoma
[21] = Homo sapiens, CFPAC-1, CFPAC-1, pancreas, ductal_carcinoma

For `CC(C)[C@@]12C[C@@H](O)[C@@](C)(O1)[C@@H]1CC[C@@H](C)[C@H]1[C@@H]2OC(=O)/C=C/c1ccccc1` [Englerin B], the IC50 (HEC-50B, cell line HEC-50B) was > 30 µM, the IC50 (HEC-251, cell line HEC-251, endometrium) was > 30 µM and the IC50 (HEC-251, cell line HEC-251) was > 30 µM. The IC50 (HEY A8, cell line Hey-A8, ovary) was > 30 µM, the IC50 (HEY A8, cell line Hey-A8) was > 30 µM and the IC50 [1] was 19.2 µM. It also gave an EC50 [1] of 12.3 µM, an IC50 [2] of 26.5 µM and an EC50 [2] of 15.8 µM. For the same compound, the IC50 (Homo sapiens, 22Rv1, cell line 22Rv1, prostate, NS) was 27.2 µM, the IC50 (Homo sapiens, 769-P, 769-P (kidney)) was > 30 µM and the IC50 [3] was > 30 µM. The EC50 [3] was 20.5 µM, the IC50 (Homo sapiens, 786-0, cell line 786-O, kidney, clear_cell_renal_cell_carcinoma) was > 30 µM and the IC50 (Homo sapiens, 786-0, cell line 786-O) was > 30 µM. The IC50 (Homo sapiens, 1321-N1, cell line 1321N1 (central_nervous_system, astrocytoma)) was > 30 µM, the IC50 (Homo sapiens, 1321-N1, cell line 1321N1, central_nervous_system, astrocytoma) was > 30 µM and the IC50 (Homo sapiens, 8305C, 8305C (thyroid)) was > 30 µM. For the same compound, the IC50 (Homo sapiens, 8305C, cell line 8305C, thyroid, anaplastic_carcinoma) was > 30 µM, the IC50 [4] was > 30 µM and the EC50 [4] was 19.2 µM. For the same compound, the IC50 [5] was > 30 µM, the EC50 [5] was 19.2 µM and the IC50 (Homo sapiens, A 172, cell line A172, central_nervous_system, astrocytoma_Grade_IV) was > 30 µM. The IC50 (Homo sapiens, A 172, cell line A172) was > 30 µM, the IC50 (Homo sapiens, A204, cell line A-204) was > 30 µM and the IC50 [6] was > 30 µM. It also gave an EC50 [6] of 17.4 µM, an IC50 (Homo sapiens, A253, cell line A-253, salivary_gland, mucoepidermoid_carcinoma) of 14.7 µM and an IC50 (Homo sapiens, A498, cell line A-498, kidney, renal_cell_carcinoma) of 12.5 µM. The IC50 (Homo sapiens, A549, cell line A549, lung, adenocarcinoma) was 23.2 µM, the IC50 (Homo sapiens, A673, A-673 cells) was > 30 µM and the IC50 (Homo sapiens, A673, cell line A-673, bone, NS) was > 30 µM. It also gave an IC50 (Homo sapiens, A2058, cell line A2058, skin, NS) of 18.5 µM, an EC50 (Homo sapiens, A2780, A2780 cells) of 12.1 µM and an IC50 [7] of 14.9 µM. For the same compound, the EC50 [7] was 12.1 µM, the IC50 (Homo sapiens, A-375, A-375 cells) was > 30 µM and the IC50 (Homo sapiens, A-375, cell line A-375, skin, NS) was > 30 µM. For the same compound, the IC50 [8] was > 30 µM, the EC50 [8] was 23.7 µM and the IC50 [9] was > 30 µM. The EC50 [9] was 23.7 µM, the IC50 (Homo sapiens, ACHN, ACHN cells) was > 30 µM and the IC50 (Homo sapiens, ACHN, cell line ACHN, kidney, renal_cell_carcinoma) was > 30 µM. It also gave an EC50 (Homo sapiens, AMO1, AMO-1 cells) of 12.2 µM, an IC50 [10] of 13.2 µM and an EC50 [10] of 12.2 µM. The IC50 (Homo sapiens, AN3-CA, cell line AN3 CA, endometrium, adenocarcinoma) was 21.1 µM, the IC50 (Homo sapiens, AN3-CA, cell line AN3 CA) was 21.1 µM and the IC50 (Homo sapiens, AU565, cell line AU565, breast, NS) was 20.5 µM. For the same compound, the IC50 [11] was > 30 µM, the EC50 [11] was 0.1 µM and the IC50 (Homo sapiens, BFTC-909, cell line BFTC-909) was > 30 µM. The EC50 (Homo sapiens, BL-41, BL-41 cells) was 16.6 µM, the IC50 [12] was 17.2 µM and the EC50 [12] was 16.6 µM. For the same compound, the IC50 (Homo sapiens, BT-20, BT-20 cells) was > 30 µM, the IC50 (Homo sapiens, BT-20, cell line BT-20, breast, ductal_carcinoma) was > 30 µM and the IC50 (Homo sapiens, BT-549, cell line BT-549, breast, ductal_carcinoma) was 19.5 µM. The EC50 (Homo sapiens, BV-173, BV-173 cells) was 12.5 µM, the IC50 [13] was 12.8 µM and the EC50 [13] was 12.5 µM. For the same compound, the IC50 (Homo sapiens, BXPC-3, cell line BxPC-3, pancreas, ductal_carcinoma) was 26.1 µM, the IC50 (Homo sapiens, C32, C32 cells) was > 30 µM and the IC50 (Homo sapiens, CAKI-1, Caki-1 (kidney)) was > 30 µM. The IC50 [14] was > 30 µM, the EC50 [14] was 13.3 µM and the IC50 (Homo sapiens, CAKI-2, Caki-2 (kidney)) was > 30 µM. The IC50 (Homo sapiens, CAKI-2, cell line Caki-2, kidney, clear_cell_renal_cell_carcinoma) was > 30 µM, the IC50 (Homo sapiens, CAL-51, CAL-51 cells) was > 30 µM and the IC50 (Homo sapiens, CAL-51, cell line CAL-51, breast, NS) was > 30 µM. For the same compound, the IC50 [15] was > 30 µM, the EC50 [15] was 15.7 µM and the IC50 [16] was > 30 µM. For the same compound, the EC50 [16] was 15.7 µM, the IC50 [17] was > 30 µM and the EC50 [17] was 27.8 µM. The IC50 [18] was > 30 µM, the EC50 [18] was 27.8 µM and the EC50 (Homo sapiens, CAL-120, CAL-120 cells) was 11.6 µM. The IC50 [19] was 22.3 µM, the EC50 [19] was 11.6 µM and the IC50 (Homo sapiens, CAMA-1, CAMA-1 (breast)) was > 30 µM. The IC50 (Homo sapiens, CAMA-1, CAMA-1, breast, NS) was > 30 µM, the IC50 (Homo sapiens, CAPAN-1, Capan-1 (pancreas)) was > 30 µM and the IC50 [20] was > 30 µM. For the same compound, the EC50 [20] was 3.35 µM, the IC50 (Homo sapiens, CCRF-CEM, CCRF-CEM cells) was > 30 µM and the IC50 (Homo sapiens, CCRF-CEM, haematopoietic_and_lymphoid_tissue, acute_lymphoblastic_T_cell_leukaemia) was > 30 µM. For the same compound, the IC50 [21] was 29.7 µM and the EC50 [21] was 12.7 µM.
